Paper PMC10526274, “Epithelial-Immune Cell Crosstalk Determines the Activation of Immune Cells In Vitro by the Human Cathelicidin LL-37 at Low Physiological Concentrations” (Biomolecules, 2023)
Values joined by “and” are separate entries in the source; they are usually repeats but may differ in a detail not shown here. Equal entries are not always repeated.

Test system: Caco-2/NKT cell co-culture
Assay: Multiplex xMAP cytokine levels, Caco-2/NKT co-culture stimulated with LL-37
Assay type: cell-based, human
Settings: NKT/Caco-2 co-culture, 1 µM LL-37, 24 h, n=2
Method: Caco-2 cell line (ATCC HTB-37) was cultured in a humidified CO2-incubator (5% CO2, 37 °C) in the complete DMEM/F12 (1:1) medium (Gibco, Waltham, MA, USA) containing 10% fetal bovine serum (FBS, Gibco) and 1X antibiotic–antimycotic solution (Gibco). To stabilize the cell phenotype, Caco-2 cells have been subcultivated three times before seeding on the filter supports. Then, Caco-2 cells were seeded at a density of 2 × 10^5 cells/cm^2 onto 24-well Millicell cell culture inserts (PC, 0.4-μm pore size, 0.6 cm^2 surface area, cat. #PIHP01250) (Millipore, Burlington, MA, USA), precoated with 0.2% bovine gelatin (Sigma-Aldrich, Saint Louis, MO, USA). After seeding, Caco-2 cells were grown in the same complete medium with re-feeding every 2–3 days until polarization of the monolayer occurred. The functional polarity of the monolayers was developed when transepithelial electrical resistance (TEER) between the apical and basolateral surfaces of the monolayers reached […] as measured by the electrical resistance system Millicell-ERS Voltohmmeter (Millipore, Burlington, MA, USA). Grown cell monolayers were used in transport and cytokine production experiments between the 21st and 29th days.
NKT cells (CD3^+CD56^+) were isolated from PBMCs using the FACSVantageDiVa cell sorter (Becton Dickinson, Franklin Lakes, NJ, USA), equipped with 405, 488, and 643 nm lasers (Supporting Materials, Figure S1). PBMCs were re-suspended in the FACS buffer (PBS containing 0.5% BSA and 2 mM EDTA) and labeled with monoclonal mouse anti-human CD3-APC (clone UCHT1, Beckman Coulter, Pasadena, CA, USA) and mouse anti-human CD56-PE/Cy7 (clone N901, Beckman Coulter) antibodies to isolate NKT cells (CD3^+CD56^+).
Sorted NKT cells were expanded by stimulation with Dynabead Human T-Expander CD3/CD28 magnetic beads (Gibco) in RPMI-1640 medium containing 10% FBS, 1X antibiotic–antimycotic solution, 100 U/mL IL-2 (Gibco), and 50 ng/mL IL-7 (Sci-Store). CD3/CD28 magnetic beads were subsequently removed with a magnet. Expanded NKT cells were washed out of the cytokines and cryopreserved.
Primary blood monocytes, moDCs, and NKT cells were seeded in 600 µL of complete RPMI-1640 with 10% Human AB serum (Capricorn Scientific, Ebsdorfergrund, Germany) and supplemented with 1X antibiotic–antimycotic solution into the wells of 24-well plates at a density of 3–7 × 10^5 cells/well 24 h before the experiment. Then, 24 h later, the medium in each well was replaced by the same medium with 1 µM of LL-37 for the sample wells or fresh medium alone for the control wells, and the permeable inserts with the Caco-2 monolayer with TEER > 400 Ω × cm^2, containing 400 μL of the complete medium in their apical chamber, were immediately placed into the appropriate wells. Also, inserts with the Caco-2 monolayer were placed in cell-free wells of 24-well plates in the same complete RPMI-1640 medium with or without 1 µM of LL-37 as controls. Cells were kept in a CO2-incubator (5% CO2, 37 °C) for another 24 h. Then, culture medium from each well was collected, centrifuged, and frozen at −70 °C.
To quantitatively evaluate a broad spectrum of analytes secreted by human cell cultures at the protein level, multiplex xMAP technology was used. […]

LL-37: the only human cathelicidin, host defense antimicrobial peptide of 37 a.a. residues, produced by solid-phase peptide synthesis
IL-18 level (control 0.74): 0.52 pg/mL
MDC level (control 1.37): 0.58 pg/mL
IL-2 level (control 1.49): 1.16 pg/mL
IL-6 level (control 1.7): 1.09 pg/mL
FLT-3L level (control 2.11): 1.96 pg/mL
IL-8 level (control 3.74): 5.93 pg/mL
IFNa2 level (control 4): <3.88↓ pg/ml
IL-4 level (control 4.85): 6.05 pg/mL
IL-9 level (control 5.8): 5.8 pg/mL
IFNg level (control 6.08): 5.17 pg/mL
MCP-3 level (control 7.84): 7.84 pg/mL
IL-1a level (control 9.17): 10.05 pg/mL
TNFb level (control 12.53): 16.33 pg/mL
TNFa level (control 15.69): 16.61 pg/mL
sCD40L level (control 23.6): 23.6 pg/mL
IL-22 level (control 27.2, p = 0.093): 34 pg/mL and 34.37 pg/mL
PDGF-AB/BB level (control 29.35): 41.49 pg/mL
GROa level (control 30.74): 50.06 pg/mL
FGF-2 level (control 35.81): 41.88 pg/mL
IL-27 level (control 35.81): 51.37 pg/mL
MIP-1b level (control 36.43): 42.84 pg/mL
MIG level (control 53.25): 70 pg/mL
M-GSF level (control 55.64): 47.83 pg/mL
GM-CSF level (control 69.7): 65.72 pg/mL
IP-10 level (control 141.7): 206.59 pg/mL
IL-13 level (control 179.71): 178.25 pg/mL
PDGF-AA level (control 200.08): 182.58 pg/mL
IL-5 level (control 246.49): 258.81 pg/mL
MIP-1a level (control 399.48): 471.29 pg/mL
RANTES level (control 718.58): 908.6 pg/mL
VEGFa level (control 951.17): 1907 pg/mL
IL-7 level (control <0.30): <0.30↓ pg/ml
IL-3 level (control <0.55): <0.55↓ pg/ml
TGF-a level (control <0.68): <0.68↓ pg/ml
IL-17A level (control <0.70): <0.70↓ pg/ml
IL-1b level (control <0.74): <0.74↓ pg/ml
IL-1RA level (control <0.93): <0.93↓ pg/ml
IL-10 level (control <1.35): <1.35↓ pg/ml
MCP-1 level (control <1.35): 2.13 pg/mL
IL-15 level (control <1.54): <1.54↓ pg/ml
EGF level (control <1.60): 2.26 pg/mL
IL-12 (p70) level (control <1.71): <1.71↓ pg/ml
G-CSF level (control <2.32): <2.32↓ pg/ml
Eotaxin level (control <2.91): <2.91↓ pg/ml
IL-12 (p40) level (control <3.33): <3.33↓ pg/ml
IL-17F level (control <12.19): <12.19↓ pg/ml
Fractalkine level (control <18.09): 19.78 pg/mL
IL-17E/IL-25 level (control <19.43): <19.43↓ pg/ml
